Assay results taken from US20250073255A1, “USE OF FA-TYPE LIPID COMPOUNDS IN PREPARATION OF NUCLEIC ACID DELIVERY REAGENT AND RELATED PRODUCT” (BEIJING BAISHIKANG PHARMACEUTICAL TECHNOLOGY (BSJPHARMA) …, priority 2021, published 2025).

Tested on: C57BL/6 male mice
Assay: In vivo delivery study of lipid nucleic acid mixture (oral gavage, RT-qPCR of PGY-sRNA-26 in tissues)
Design: species or system mouse
Settings: for overall delivery efficacy: delivering nucleic acids into each tissue and blood tested: 100 μg lipid:10 nmol PGY-sRNA-26, all tissues and blood tested; for oral delivery of single-stranded sRNA nucleic acids into mouse blood / oral delivery of single-stranded sRNA nucleic acids into mouse brain tissue / oral delivery of single-stranded sRNA nucleic acids into mouse heart tissue / oral delivery of single-stranded sRNA nucleic acids into mouse intestinal tissue / oral delivery of single-stranded sRNA nucleic acids into mouse kidney tissue / oral delivery of single-stranded sRNA nucleic acids into mouse liver tissue / oral delivery of single-stranded sRNA nucleic acids into mouse lung tissue / oral delivery of single-stranded sRNA nucleic acids into mouse spleen tissue / oral delivery of single-stranded sRNA nucleic acids into mouse stomach tissue / oral delivery of single-stranded sRNA nucleic acids into mouse femur: 100 μg lipid:10 nmol PGY-sRNA-26, sampled after 12 hours; for oral delivery of single-stranded sRNA nucleic acids into mouse heart tissue: vs free uptake group; for oral delivery of single-stranded sRNA nucleic acids into mouse intestinal tissue: intestine
Experimental: 10 nmol of small RNA (as shown in Table 2) was dissolved in 400 μl of DEPC-treated water in a glass tube, 10 μl of the corresponding lipid stock solution was added such that the lipid mass in the system was 100 μg. The mixture was mixed thoroughly, heated in a 90° C. water bath for 15 minutes, and then cooled naturally to obtain the lipid nucleic acid mixture of lipid and small RNA.
C57BL/6 male mice, approximately 6 weeks old, weighing […], were obtained from Beijing Vital River Laboratory Animal Technology Co., Ltd. The mice were housed in the SPF-grade animal facility at the Animal Center of the Institute of Basic Medical Sciences, Chinese Academy of Medical Sciences. The mice were fasted for 12 hours before gavage administration.
The lipid nucleic acid mixture was prepared following the method described in Example 2. The resultant lipid nucleic acid mixture was orally administered to each mouse at a dose of 100 μg lipid:10 nmol single-stranded 3-methylated small RNA PGY-sRNA-26.
• 1) Blank group (n=4): mice were administered with 500 μl saline by gavage, this group served as a blank control; • 2) Free uptake group (n=4): mice were directly administered with small RNA PGY-sRNA-26 solution (10 nmol/mouse, 500 l) by gavage, this group served as a negative control; • 3) Lipid-treated group (n=4): mice were administered with 500 μl lipid nucleic acid mixture prepared in step 2 by gavage.
After 12 hours of gavage administration, 500 μl blood from the eyeball of each mouse was sampled, added to 1.5 ml Trizol Reagent LS (purchased from Invitrogen), thoroughly mixed for lysis. 3 ml of Trizol Reagent LSwas added to tissue samples and homogenized for complete lysis, wherein the sampled tissues include heart, liver, spleen, lung, kidney, stomach, intestine, brain, blood, femur, pancreas. RNAwas extracted from 1 ml of the blood or the tissue lysate following the steps below: • Centrifuge at 4° C., 12,000 rpm for 5 min, discard the precipitate, transfer Trizol to a new centrifuge tube; • Add chloroform at 200 μL chloroform/mL Trizol, shake well, stand at room temperature for 5 min; • Centrifuge at 4° C., 12,000 rpm for 15 min; • Take the upper aqueous phase to another centrifuge tube, add isopropanol at 0.4 mL isopropanol/mL Trizol, mix well, and stand at low temperature for 10-20 min; • Centrifuge at 4° C., 12,000 rpm for 15 min, discard the supernatant, RNA precipitated at the bottom of the tube; • Add 1 mL of 75% ethanol, gently shake the centrifuge tube, suspend the precipitate; • Centrifuge at 4° C., 12,000 rpm for 15 min, discard the supernatant, add 1 mL of 75% ethanol, gently shake the centrifuge tube, suspend the precipitate; • Centrifuge at 4° C., 12,000 rpm for 15 min, discard the supernatant, air-dry at room temperature, dissolve RNA samples in 50 μL RNase-free H2O, measure OD value to quantify RNA concentration. 3.3 Reverse Transcription of sRNA to cDNA:
sRNA was reverse transcribed to cDNA using the High-Capacity cDNA Reverse Transcription Kit (Applied Biosystems, cat. no. 4368813) by stem-loop method (see, e.g., “Real-time quantification of microRNAs by stem-loop RT-PCR, Nucleic Acids Res. 2005 Nov. 27; 33(20):e179”, incorporated herein by reference). The reverse transcription system is as follows: Template RNA (200 ng/μL) 10 μL, 10×RT Buffer 2.0 μL, 25×dNTP Mix (100 mM) 0.8 μL, U6 RT stem-loop primer (10 μM) 2.0 μL, PGY-sRNA-26 RT stem-loop primer (10 μM) 2.0 μL, MultiScribe™ Reverse Transcriptase (50 U/μL) 1.0 μL, RNAse Inhibitor (40 U/μL) 1.0 μL, nuclease-free H2O 1.2 μL. After transient centrifugation, the reverse transcription system was placed in a PCR machine with the following reaction conditions: (1) 25° C., 10 min; (2) 37° C., 120 min; (3) 85° C., 5 min; (4) 4° C., stop reaction. After the reaction, add 20 μL RNAse-free ddH2O, adjust the final volume to 40 μL. […]

Structure (SMILES)	overall delivery efficacy: delivering nucleic acids into each tissue and blood tested	oral delivery of single-stranded sRNA nucleic acids into mouse blood	oral delivery of single-stranded sRNA nucleic acids into mouse brain tissue	oral delivery of single-stranded sRNA nucleic acids into mouse heart tissue	oral delivery of single-stranded sRNA nucleic acids into mouse intestinal tissue	oral delivery of single-stranded sRNA nucleic acids into mouse kidney tissue	oral delivery of single-stranded sRNA nucleic acids into mouse liver tissue	oral delivery of single-stranded sRNA nucleic acids into mouse lung tissue	oral delivery of single-stranded sRNA nucleic acids into mouse spleen tissue	oral delivery of single-stranded sRNA nucleic acids into mouse stomach tissue	oral delivery of single-stranded sRNA nucleic acids into mouse femur
CC/C=C/CC1C(=O)CCC1CC(=O)OC (centres unmarked) [Lipid 501]	best delivery efficacy	can effectively orally deliver	can effectively orally deliver	can effectively orally deliver	can effectively orally deliver	can effectively orally deliver	can effectively orally deliver	can effectively orally deliver	can effectively orally deliver	can effectively orally deliver	–
CC(=O)CCC=C(C)CCC=C(C)C [Lipid 502, 6,10-dimethylundeca-5,9-dien-2-one]	–	can effectively orally deliver	can effectively orally deliver	can effectively orally deliver	can effectively orally deliver	can effectively orally deliver	–	–	can effectively orally deliver	can effectively orally deliver	–
CC1(O)CCCC1 [Lipid 503]	–	can effectively orally deliver	can effectively orally deliver	–	can effectively orally deliver	can effectively orally deliver	can effectively orally deliver	can effectively orally deliver	can effectively orally deliver	can effectively orally deliver	–
CCCCCCCCCCCC(C)O (centres unmarked) [Lipid 505, tridecan-2-ol]	–	can effectively orally deliver	can effectively orally deliver	–	–	–	can effectively orally deliver	–	–	can effectively orally deliver	–
CCCCCCCCCCCCCCCCCCCCCCC(=O)NCCO [Lipid 519, N-(2-hydroxyethyl)tricosanamide]	–	–	–	can effectively orally deliver	–	can effectively orally deliver	–	can effectively orally deliver	–	can effectively orally deliver	–
CCCCC/C=C\C/C=C\C/C=C\C/C=C\CCCCCC(=O)O [Lipid 520, (7Z,10Z,13Z,16Z)-docosa-7,10,13,16-tetraenoic acid]	–	–	can effectively orally deliver	can effectively orally deliver	–	–	can effectively orally deliver	can effectively orally deliver	can effectively orally deliver	–	–
NCCCCCC(=O)NCCCCCC(=O)O [Lipid 522, 6-(6-aminohexanoylamino)hexanoic acid]	–	can effectively orally deliver	–	can effectively orally deliver	can effectively orally deliver	–	–	can effectively orally deliver	can effectively orally deliver	can effectively orally deliver	–
CCCCCC(=O)/C=C/C=O [Lipid 525, (E)-4-oxonon-2-enal]	–	–	–	–	can effectively orally deliver	can effectively orally deliver	–	can effectively orally deliver	can effectively orally deliver	can effectively orally deliver	–
CC/C=C/CCO [Lipid 526]	best delivery efficacy	can effectively orally deliver	can effectively orally deliver	can effectively orally deliver	can effectively orally deliver	can effectively orally deliver	can effectively orally deliver	can effectively orally deliver	can effectively orally deliver	can effectively orally deliver	can effectively orally deliver
CC/C=C\CC1C(=O)CCC1CC(=O)O (centres unmarked) [Lipid 527]	best delivery efficacy	can effectively orally deliver	can effectively orally deliver	can effectively orally deliver	can effectively orally deliver	can effectively orally deliver	can effectively orally deliver	can effectively orally deliver	can effectively orally deliver	can effectively orally deliver	can effectively orally deliver
